The conditions of data set [1]: in comparison to a 15 mg dose of hydrocodone. The text has this: In certain preferred embodiments, the opioid agonist is oxycodone or hydrocodone.
The conditions of data set [2]: cited from earlier work; for Duration of action: after oral doses.

SMILES strings stand for the structures.

As for `CN1CC[C@]23CCCC[C@H]2[C@H]1Cc1ccc(O)cc13` [Levorphanol], in data set [1], the “Equianalgesic dose, Calculated Dose” value is listed as 1.8 mg.
Consider `O=C1CC[C@@]2(O)[C@H]3Cc4ccc(O)c5c4[C@@]2(CCN3CC2CC2)[C@H]1O5` [naltrexone], for which the Duration of action in data set [2] is roughly 24 h. Besides, in data set [2] (in vivo), the Protein binding result is listed as “approximately 21%”. Besides, in data set [2] (oral administration), the Oral bioavailability is listed as 5-40% and the Time of absorption was no more than 1 h.
In the case of `C[C@H]1[C@H]2Cc3ccc(O)cc3[C@]1(C)CCN2CC1CC1` [cyclazocine], the Duration of action in data set [2] is roughly 24 h.
On to `CCC(=O)C(CC(C)N(C)C)(c1ccccc1)c1ccccc1` (stereo not shown) [Methadone], for which, in data set [1], the “Equianalgesic dose, Calculated Dose” value was 9.0 mg.
Still for that read-out and setting: the same measure for `COc1ccc2c3c1OC1C(=O)CC[C@H]4[C@@H](C2)N(C)CC[C@]314` (stereo partly shown) [Hydrocodone, 4,5-epoxy-3-methoxy-17-methylmorphinan-6-one]: 15.0 mg; for `COc1ccc2c3c1O[C@H]1C(=O)CC[C@@]4(O)[C@@H](C2)N(C)CC[C@]314` [Oxycodone, 4,5-expoxy-14-hydroxy-3-methoxy-17-methylmorphinan-6-one]: 13.5 mg; for `COc1ccc2c3c1O[C@H]1[C@@H](O)C=C[C@H]4[C@@H](C2)N(C)CC[C@@]341` [Codeine]: 90.0 mg.

The values above are taken from patent US8758825B2, “Sequestered antagonist formulations” (Purdue Pharma L.P., priority 2001, dated 2014).
